Results from PMC6934184, “Selective DNA-PKcs inhibition extends the therapeutic index of localized radiotherapy and chemotherapy” (The Journal of Clinical Investigation, 2019).

Biological target: T1, PRKG1 (Homo sapiens, UniProt Q13976)
T1 construct: purchased Thermo Fisher Scientific (Life Technologies) SelectScreen
Experiment: SelectScreen Z'LYTE
Assay type: biochemical
Outline: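 Percent values come from Thermo SelectScreen profiling of NU5455, combining activity and binding assays. CSF1R was run in Z'LYTE format at Km app ATP, and CAMK1 in Adapta format with ATP listed at 10.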

T1 sequence (Q13976 whole entry): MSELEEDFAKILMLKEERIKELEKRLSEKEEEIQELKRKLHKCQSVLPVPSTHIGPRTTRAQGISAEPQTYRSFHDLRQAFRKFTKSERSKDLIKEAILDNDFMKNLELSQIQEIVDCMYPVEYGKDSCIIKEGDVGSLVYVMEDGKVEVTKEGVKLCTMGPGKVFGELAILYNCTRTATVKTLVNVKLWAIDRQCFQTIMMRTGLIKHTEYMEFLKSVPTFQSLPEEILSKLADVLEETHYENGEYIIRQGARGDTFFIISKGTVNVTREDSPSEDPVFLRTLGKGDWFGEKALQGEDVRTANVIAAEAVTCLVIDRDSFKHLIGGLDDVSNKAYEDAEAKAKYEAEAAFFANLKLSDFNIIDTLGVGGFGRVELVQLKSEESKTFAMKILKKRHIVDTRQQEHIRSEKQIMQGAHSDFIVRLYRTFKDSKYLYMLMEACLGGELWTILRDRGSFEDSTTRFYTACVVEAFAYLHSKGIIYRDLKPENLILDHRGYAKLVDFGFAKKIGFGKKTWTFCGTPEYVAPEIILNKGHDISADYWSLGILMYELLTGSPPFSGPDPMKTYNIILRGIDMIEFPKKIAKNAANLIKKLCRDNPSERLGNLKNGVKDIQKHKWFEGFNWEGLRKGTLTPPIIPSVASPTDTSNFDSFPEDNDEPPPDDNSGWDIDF

Question: Which inhibition at 1 µM does the source give for `CN(C(=O)CN1CCOCC1)c1ccc2sc3c(-c4cccc5c(=O)cc(N6CC7CCC(C6)O7)oc45)cccc3c2c1` [NU5455] here?
Answer: Its inhibition at 1 µM is -2.7%.
